In the METLIN SMRT retention time set (Domingo-Almenara et al. 2019):

Experiment: gradient 5% acetonitrile 3 min, to 50% in 2 min, to 85% in 15 min, held 3 min, 100 µL/min
Settings: column: Zorbax Extend-C18 2.1 x 50 mm; eluents: water / acetonitrile, 0.1% formic acid
How it was run: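 Data were gathered over 3 months by HPLC coupled to a quadrupole time-of-flight mass spectrometer, operated in positive and negative ionization mode. Mixtures of ~100 pure standards ran on a Zorbax Extend-C18 column (2.1 × 50 mm, 1.8 μm) at 100 μL/min, with water and acetonitrile each containing 0.1% formic acid and dead and dwell volumes of 40 μL and 900 μL. Retention time was read from adduct peaks picked by computer and checked manually.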

| RP-LC retention time | SMILES |
| --- | --- |
| 759 s | COc1ccc2cc(C(=O)N3CCC(CC(=O)NCCc4c[nH]c5ccc(OC)cc45)CC3)[nH]c2c1 |
| 680 s | Cc1cccc(C(=O)N2CCN(c3nnc4cccc(C)n34)CC2)c1 |
| 770 s | CCc1ccc(NC(=O)N2CC(c3nc(C)no3)C3(CCOCC3)C2)cc1 (stereo not given) |
| 801 s | O=C(CC1CCCC1)Nc1ccc(N2CCN(C3CCCC3)C2=O)nc1 |
| 752 s | COc1ccc(N2CCN(C(=O)CN3C(=O)NC(c4ccc(Cl)cc4)C4=C3COC4=O)CC2)cc1 (stereo not given) |
| 682 s | Cc1ccc(Nc2cc(N3CCC(C(=O)N4CCSCC4)CC3)ncn2)cc1 |
| 851 s | CCn1cc(C(=O)NC2CCCC2)c2nn(-c3ccccc3)c(=O)c-2c1 |
| 577 s | Cc1nccn1CC(=O)N1CCC(OCc2nc(C3CC3)no2)CC1 |
| 654 s | COCc1nc2cccnc2n1C1CCN(C(=O)Nc2ccc3c(c2)OCCO3)CC1 |
| 843 s | CCC(C)NC(=O)N1CCCN(C2=NS(=O)(=O)C(c3ccc(C)c(C)c3)=C2C)CC1 (stereo not given) |
| 787 s | COc1ccc(NC(=O)N2CCC3(CC2)NC(=O)c2ccc(Cl)cc2N3C)c(C)c1 |
| 675 s | Cc1ccc(NC(=O)Cn2nc3nc(N4CCOCC4)ccn3c2=O)cc1F |
| 752 s | COC(=O)c1ncn2c1C(=O)N(Cc1ccc(F)cc1)C(C)(C(=O)NC1CCCCC1)C2 (stereo not given) |
| 955 s | CC1(C(=O)NC2CCCC2)Cn2cnc(C(=O)NCc3cccc(Cl)c3)c2C(=O)N1C1CC1 (stereo not given) |
| 684 s | Cc1ccc2nc(CN3CCN(C(=O)Nc4ccc5c(c4)OCO5)CC3)oc2c1 |
| 860 s | O=C(C1CCCN(c2ncnc3c2nc2n3CCCCC2)C1)N1CCc2ccccc21 (stereo not given) |

| RP-LC retention time | SMILES |
| --- | --- |
| 740 s | CCN1c2ccccc2C(=O)NC12CCN(C(=O)c1ccc3c(c1)OCO3)CC2 |
| 859 s | O=C(NC1CCCc2c1[nH]c1ccc(Cl)cc21)c1ccncc1 (stereo not given) |
| 713 s | COc1ccc(NC(=O)N2CCN(Cc3nc4ccc(Cl)cc4o3)CC2)cc1 |
| 786 s | Cc1noc(C2CN(C(=O)Nc3cccc(Cl)c3)CC23CCOCC3)n1 (stereo not given) |
| 592 s | Nc1nc(N2CCN(c3ccccn3)CC2)ncc1C(=O)NCc1ccccc1 |
| 646 s | O=C(CN1C(=O)C2CCCCN2c2ccc(S(=O)(=O)N3CCCC3)cc21)NCc1cccnc1 (stereo not given) |
| 865 s | CCc1ccc(CNC(=O)c2cc3n(n2)CC(C)(C(=O)NC2CCCC2)N(CC)C3=O)cc1 (stereo not given) |
| 758 s | CCCCC(=O)Nc1ccc2nc(N3CCN(c4cccc(Cl)c4)CC3)cc(C(=O)O)c2c1 |
| 729 s | CN1c2ccccc2C(=O)NC12CCN(C(=O)Nc1ccc(F)cc1)CC2 |
| 794 s | CCN1C(=O)CCc2cc(NS(=O)(=O)c3ccc4c(c3)OCCO4)ccc21 |
| 935 s | O=C(CN1C(=O)CCc2cc(S(=O)(=O)N3CCCCC3)ccc21)NC1CCCc2ccccc21 (stereo not given) |
| 1130 s | Cc1ccc(F)cc1NC(=O)c1csc(-c2cn(C)c3ncccc23)n1 |
| 894 s | O=C(Nc1cc(-c2ccccn2)no1)c1cccc(Br)c1 |
| 861 s | COc1cccc(NC(=O)N2CCC(n3c(C(F)(F)F)nc4cccnc43)CC2)c1 |
| 691 s | CC(=O)Nc1ccc(N(Cc2nnc3n2CCCCC3)C(=O)Nc2cccc(Cl)c2)cc1 |

Continued, molecule first:

| SMILES | RP-LC retention time |
| --- | --- |
| CC(C)(C)NC(=O)Cn1ccn2nc(-c3ccccc3)c(CO)c2c1=O | 721 s |
| CCOC(=O)CCc1c(C)c2c(O)cc(O)cc2oc1=O | 701 s |
| CC(C)NC[C@H](O)COc1cccc2ccccc12 | 720 s |
| C=Cc1ccc(Cn2c(C)c(CNCCc3ccco3)c(C(=O)O)c2C)cc1 | 755 s |
| CCCn1c(=O)sc2cc(S(=O)(=O)N3CCC(C(=O)NCC4CCCO4)CC3)ccc21 (stereo not given) | 763 s |
| CC(C)(O)CC[C@@H](O)[C@](C)(O)[C@H]1CC[C@@]2(O)C3=CC(=O)[C@@H]4C[C@@H](O)[C@@H](O)C[C@]4(C)[C@H]3CC[C@]12C | 629 s |
| COc1cc(NS(=O)(=O)c2ccc(N)cc2)nc(OC)n1 | 680 s |
| CS(=O)(=O)c1ccc(Cl)c(NC(=O)c2cccnc2)c1 | 590 s |
| CN(C)c1cccc(C(=O)N2CCc3nc[nH]c3C2)c1 | 578 s |
| Cc1csc(-c2cc(S(=O)(=O)N(Cc3cccs3)C3CCCC3)c(C)s2)n1 | 1320 s |
| CC(C)CN(CCCNC(=O)C1CCN(c2cnn(C)c(=O)c2)C1)CC(C)C (stereo not given) | 589 s |
| Cc1cc(NC(=O)c2ccco2)c2cc(F)cc(F)c2n1 | 668 s |
| Cc1ccc(S(=O)(=O)N2CCc3c(c(-c4nnc(-c5ccccc5F)o4)nn3C)C2)cc1C | 988 s |
| Cc1ccc(-n2ncc3c(=O)n(Cc4nc(-c5cccc(Br)c5)no4)cnc32)cc1 | 1180 s |
| Cn1c(=O)c2c(nc(N3CCCCC3)n2C)n(C)c1=O | 794 s |
| CC(C)N1C(=O)C2(CCCC2)C1C(=O)N1CCc2ccccc21 (stereo not given) | 780 s |
| COc1ccc(NS(=O)(=O)c2ccc(/C=C\c3onc(C)c3NC(C)=O)cc2)cc1 | 779 s |

| SMILES | RP-LC retention time |
| --- | --- |
| COC(=O)Nc1nc2ccc(Br)cc2[nH]1 | 642 s |
| COCCCNC(=O)CN1C(=O)CC(c2ccc(Br)s2)=Nc2ccccc21 | 849 s |
| CC(=O)Nc1cccc(N2CC(C(=O)Nc3ccc(C)cc3Br)CC2=O)c1 (stereo not given) | 720 s |
| O=C(NCc1ccccc1)c1c(O)c2cccnc2n(-c2cccc(F)c2)c1=O | 1160 s |
| COc1ccc(CN2C=C(C(=O)OCc3noc(-c4ccccc4)n3)C(C)=NS2(=O)=O)cc1 | 1100 s |
| CC(/C=C/C(=O)NO)=C\C(C)C(=O)c1ccc(N(C)C)cc1 (stereo not given) | 723 s |
| Cc1ccc(C)c(OCC(=O)Nc2nc(-c3ccc(Br)cc3)cs2)c1C | 1430 s |
| CCOCCCNC(=O)C1c2c(n(C)c3ccccc23)SCC(=O)N1Cc1ccc(OC)cc1 (stereo not given) | 875 s |
| CN(CCCNC(=O)C1c2ccccc2C(=O)N(C)C1c1cccs1)Cc1ccccc1 (stereo not given) | 645 s |
| CC(C)(C)c1ccc(-c2nc(C3CC(=O)N(c4ccc(Cl)cc4)C3)no2)cc1 (stereo not given) | 861 s |
| COc1ccc(-c2nnc(N3CCC(C(=O)N4CCC5(CC4)OCCO5)CC3)o2)cc1 | 704 s |
| CCn1c(C)c(-c2nc(C3CC3)no2)c(S(=O)(=O)NC2CCCC2)c1C | 1060 s |
| CC1CCN(S(=O)(=O)c2cc(-c3ccc(N4CCCC(C)C4)nn3)cs2)CC1 (stereo not given) | 915 s |
| CCCN1CCN(C(=O)C2CCN(S(=O)(=O)c3ccc4c(c3)sc(=O)n4CC)CC2)CC1 | 623 s |
| CCn1cc(CCNS(=O)(=O)c2ccccc2F)c2cccnc21 | 745 s |
| Cn1cnc([N+](=O)[O-])c1Sc1ncn[nH]1 | 626 s |
| CCOC(=O)C1C(=O)C=C(c2cccc(NS(C)(=O)=O)c2)CC1c1ccccc1F (stereo not given) | 840 s |
